Laboratory results taken from US8394968B2, “Hepatitis C virus inhibitors” (Bristol-Myers Squibb Company, priority 2009, dated 2013).
Read-outs that look alike come from different tables or passages of the source.

System: HCV 1b genotype
Test: HCV Replicon assay (HCV-neo replicon cells, wild-type; luciferase reporter variants also used)
Format: cell-based
Conditions: Hepatitis C virus, HCV 1b genotype replicon
Description: An HCV Replicon assay was utilized in the present disclosure, and was prepared, conducted and validated as described in commonly owned PCT/US2006/022197 and in O'Boyle et. al. Antimicrob Agents Chemother. 2005 April; 49(4):1346-53. Assay methods incorporating luciferase reporters have also been used as described (Apath.com).
HCV-neo replicon cells and replicon cells containing mutations in the NS5A region were used to test the currently described family of compounds. The compounds were determined to have more than 10-fold less inhibitory activity on cells containing mutations than wild-type cells. Thus, the compounds of the present disclosure can be effective in inhibiting the function of the HCV NS5A protein and are understood to be as effective in combinations as previously described in application PCT/US2006/022197 and commonly owned WO/04014852. Further, the compounds of the present disclosure can be effective against the HCV 1b genotype. It should also be understood that the compounds of the present disclosure can inhibit multiple genotypes of HCV. […] In one embodiment, compounds of the present disclosure are inhibitory versus 1a, 1b, 2a, 2b, 3a, 4a, and 5a genotypes.

COC(=O)NC(C(=O)N1CCC[C@H]1c1nc2ccc(C#Cc3cccc(-c4[nH]cnc4[C@@H]4CCCN4C(=O)[C@@H](NC(=O)OC)C(C)C)c3)cc2[nH]1)C(C)C (stereo in doubt) [J.28l, methyl ((1S)-1-(((2S)-2-(5-(3-((2-((2S)-1-((2R)-2-((methoxycarbonyl)amino)-3-methylbutanoyl)-2-pyrrolidinyl)-1H-benzimidazol-5-yl)ethynyl)phenyl)-1H-imidazol-4-yl)-1-pyrrolidinyl)carbonyl)-2-methylpropyl)carbamate]
EC50 (class symbol, read-out: EC50 Range): 4.57 to 99 nM | EC50 (read-out: EC50): 7 nM

COC(=O)NC(C(=O)N1CCC[C@H]1c1nc2ccc(-c3ccc(-c4ccc5c(ccc6[nH]c([C@@H]7CCCN7C(=O)C(NC(=O)OC)c7ccccc7)nc65)c4)cc3)cc2[nH]1)c1ccccc1 (stereo in doubt) [J.27c, methyl ((1R)-2-((2S)-2-(7-(4-(2-((2S)-1-((2R)-2-((methoxycarbonyl)amino)-2-phenylacetyl)-2-pyrrolidinyl)-1H-benzimidazol-5-yl)phenyl)-1H-naphtho[1,2-d]imidazol-2-yl)-1-pyrrolidinyl)-2-oxo-1-phenylethyl)carbamate]
EC50 (read-out: EC50): 0.003 nM
